The results in this text go back to PubChem BioAssay AID588401 (Johns Hopkins Ion Channel Center, 2011).

The source made the active and inactive calls.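 The calls were made as follows: active = blocks the choline transporter at some tested dose and yields a fitted dose response curve; inconclusive = no clear call, values can overlap the other calls; inactive = no blocking at any dose or no curve.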

High affinity choline transporter 1 (Homo sapiens), sequence (Q9GZV3 whole entry, looked up): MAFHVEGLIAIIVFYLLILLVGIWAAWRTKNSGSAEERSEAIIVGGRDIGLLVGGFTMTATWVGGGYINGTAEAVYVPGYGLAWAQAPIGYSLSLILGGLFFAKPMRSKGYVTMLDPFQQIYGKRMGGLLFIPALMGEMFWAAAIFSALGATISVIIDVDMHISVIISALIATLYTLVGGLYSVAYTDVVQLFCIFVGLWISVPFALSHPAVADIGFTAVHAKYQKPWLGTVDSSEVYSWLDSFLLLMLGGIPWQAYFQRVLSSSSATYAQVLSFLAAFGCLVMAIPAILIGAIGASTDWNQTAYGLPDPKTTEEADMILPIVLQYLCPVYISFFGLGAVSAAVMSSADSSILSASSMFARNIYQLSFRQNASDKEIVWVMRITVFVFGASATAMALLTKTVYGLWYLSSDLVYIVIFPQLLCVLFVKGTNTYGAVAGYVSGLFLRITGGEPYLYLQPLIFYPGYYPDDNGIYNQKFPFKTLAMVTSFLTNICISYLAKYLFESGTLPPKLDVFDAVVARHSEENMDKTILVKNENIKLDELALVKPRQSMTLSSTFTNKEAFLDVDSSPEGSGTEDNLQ

The first experiment concerns the target High affinity choline transporter 1 (Homo sapiens) (UniProt Q9GZV3). Put plainly: human choline transporter blockers, potency – cell-based, 10-point CRC, membrane potential dye, dose response (AID 588401). As to conditions: HEK293-CHT, choline-induced depolarization, at 25 µM (top of the series), cells express LV-AA mutant CHT.
For `Cc1ccc(C(=O)NC2CCCC(C)C2C)cc1S(=O)(=O)N1CCCCC1` (stereo not given), the “inhibition (negative values = inhibition)” value (from here on “inhibition”) is “inactive”.
For the compound `CN(CCC#N)C(=O)COC(=O)c1ccccc1C(=O)c1ccc(Cl)c([N+](=O)[O-])c1`, the “inhibition” value was “inactive”.
With `Cc1c(C(=O)OC(C)C)sc(NC(=O)c2cccnc2)c1C#N`, the “inhibition” value is “inactive”.
As to `COc1ccccc1Nc1nnc(SCC2CCCCO2)s1` (stereo not given), the “inhibition” value was “inactive”.
With `O=C(c1ccc(Cl)c(S(=O)(=O)N2CCCC2)c1)N1CCN(c2ccccc2)CC1`, the “inhibition” value is “inactive”.
In the case of `O=C(C1CCCN(c2ncnc3c2nc2n3CCCCC2)C1)N1CCN(c2ccc(Cl)cc2)CC1` (stereo not given), the “inhibition” value was “inactive”.
As to `COc1cc(/C=C2\S/C(=N/S(=O)(=O)Cc3ccccc3)NC2=O)c([N+](=O)[O-])cc1OC`, the “inhibition” value is “inactive”.
Consider `O=C(CSc1nnc(-c2ccco2)n1Cc1ccco1)NCc1cccs1`, for which the “inhibition” value is “inactive”.
As to `O=C(CSc1nc2ccccc2[nH]1)c1ccc2c(c1)OCO2`, the “inhibition” value was “inactive”.
`CCOCCCNC(=O)/C(C#N)=C/c1ccc([N+](=O)[O-])o1`: the “inhibition” value is “inactive”.
As to `C/C(=N\NS(=O)(=O)c1ccc(Cl)c([N+](=O)[O-])c1)c1cc2ccccc2o1`, the “inhibition” value is “inactive”.
For the compound `O=S(=O)(c1ccccc1F)N1CCN(CCc2ccccc2)CC1`, the “inhibition” value was “inactive”.
The same measure, in the same setting: to `Cc1cc(-c2ccccc2)n(-c2ccc(C(=O)N3CCN(c4ncccn4)CC3)cc2)n1` belongs “inactive”; to `Cc1ccc(-n2cc(CN3CCN(Cc4nccn4C)CC3)c(-c3ccc(F)cc3)n2)cc1`, “inactive”.
`CCOC(=O)c1c(NC(=O)C2C3C=CC(C3)C2C(=O)O)sc2c1CCC(CC)C2` (stereo not given): the “inhibition” value is “inactive”.
On the same count and under the same terms, to `COc1ccc(OC)c(/C=C2\SC(=S)N(NS(=O)(=O)c3ccccc3)C2=O)c1` belongs “inactive”; to `COCCCNC(=O)c1ccc(OC)c(OC2CCN(C(C)C)CC2)c1`, “inactive”; to `Cc1csc(NC(=O)CSc2nc(C(C)C)nc3ccccc23)n1`, “inactive”.
Regarding `CCOC(=O)C1CCN(Cc2c(O)c3ccccc3oc2=O)CC1`, the “inhibition” value is “inactive”.
Regarding `O=C(COC(=O)CCCSc1nc2ccccc2[nH]1)NC(=O)NC1CCCC1`, the “inhibition” value is “inactive”.
Regarding `CC1(C)CC2CC(C)(CN2c2ncnc3ccccc23)C1` (stereo not given), the “inhibition” value was “inactive”.
Take `COc1cc2c(cc1OC)-c1cc(NC3CCCCCCC3)nc(=O)n1CC2`: the “inhibition” value was “inactive”.
Turning to `Cc1nn(-c2ccccc2)c2[nH]c(=O)cc(C(F)(F)F)c12`, the “inhibition” value is “inactive”.
`Cc1cc(Cl)ccc1OCCCC(=O)N1CCN(C(=O)c2ccco2)CC1`: the “inhibition” value is “inactive”.
For `CC1(C)CC(=O)C=C(Nc2cccc(Cl)c2Cl)C1`, the “inhibition” value was “inactive”.
With `Cc1cccc(OCC(O)Cn2c(=N)n(Cc3ccccc3)c3ccccc32)c1` (stereo not given), the “inhibition” value was “inactive”.
The same measure, in the same setting: in the case of `O=[N+]([O-])c1cc(Cc2ccccc2)cc(C=Nc2ccc(N3CCOCC3)cc2)c1O` it was “inactive”.
In the case of `CCOC(=O)c1sc(NC(=O)CCN2C(=O)c3cccc([N+](=O)[O-])c3C2=O)c(C(=O)OCC)c1C`, the “inhibition” value was “inactive”.
For the compound `O=C1NC(c2ccccc2)=C(c2ccc3ccccc3n2)C(c2ccncc2)N1` (stereo not given), the “inhibition” value is “inactive”.
On the same count and under the same terms, to `Cc1ccc(-c2cccc(CN3CCN(C(C)C)C(CCO)C3)c2)o1` (stereo not given) belongs “inactive”; to `COc1ccc(-n2c(=S)[nH]c3cc(C(=O)NCCCN4CCOCC4)ccc3c2=O)cc1`, “inactive”; to `COc1ccc(C2=Nn3c(nnc3C3CCCCC3)SC2)cc1OC`, “inactive”.
Take `O=C(Nc1ccn(Cc2ccccc2)n1)c1n[nH]c([N+](=O)[O-])c1Cl`: the “inhibition” value is “inactive”.
In the case of `Cc1noc(NS(=O)(=O)c2ccc(NC(=O)COc3ccc(Cl)cc3Cl)cc2)c1C`, the “inhibition” value is “inactive”.
For the compound `COc1ccc(C/C(O)=C(\C#N)c2nc3ccccc3s2)cc1`, the “inhibition” value is “inactive”.
`CCc1cc2c(NCc3ccco3)ncnc2s1`: the “inhibition” value was “inactive”.
For the compound `Oc1ccc(C[C@H]2NCCc3cc(O)c(O)cc32)cc1O`, the “inhibition” value was “inactive”.
Consider `N=c1n(Cc2ccccc2)c2ccccc2n1CC(O)COc1ccccc1` (stereo not given), for which the “inhibition” value was “inactive”.
Consider `Oc1cccc(C(O)CNCc2ccc(OCc3ccc(Cl)cc3Cl)cc2)c1` (stereo not given), for which the “inhibition” value was “inactive”.
On the same count and under the same terms, in the case of `O=c1c2cc(Br)ccc2nc(-c2ccc(Cl)cc2)n1O` it was “inactive”.
In the case of `Oc1c(Cl)cc(Cl)cc1C=Nc1ccc2c(c1)OCCO2`, the “inhibition” value is “inactive”.
`Cc1ccc(C)c(OCC(=O)Nc2ccc(S(=O)(=O)Nc3ccccn3)cc2)c1C`: the “inhibition” value was “inactive”.
For `COC(=O)/C(=C/c1c[nH]c2ccccc12)[N+](=O)[O-]`, the “inhibition” value is “inactive”.
As to `O=C(NC1CCCCC1)C(c1ccc2ncccc2c1)N(Cc1ccccc1)C(=O)c1ccc2c(c1)OCCO2` (stereo not given), the “inhibition” value was “inactive”.
For `CCN1CCN(CCNC(=O)c2ccc3nc(-c4cccc(C)c4)c(-c4cccc(C)c4)nc3c2)CC1`, the “inhibition” value was “inactive”.
For `CCN1CCn2c3c(c4cc(Cl)ccc42)CCCC31` (stereo not given), the “inhibition” value is “inactive”.
For the compound `CCCOc1ccc(C(CC(=O)O)NC(=O)c2sc3ccccc3c2Cl)cc1` (stereo not given), the “inhibition” value is “inactive”.
In the case of `CC#CCN(CC#CC)S(=O)(=O)c1ccc(-n2cnnn2)c(OC)c1`, the “inhibition” value is “inactive”.
With `COc1cc(/C=C2/C(=O)ON=C2c2ccccc2)ccc1O`, the “inhibition” value was “inactive”.
Turning to `Cc1ccc(N2NC(=O)/C(=C\c3cc4c(cc3[N+](=O)[O-])OCO4)C2=O)cc1C`, the “inhibition” value is “inactive”.
Regarding `CC(C)C(=O)Nc1cccc(NC(=O)c2ccc(Cl)cc2Cl)c1`, the “inhibition” value is “inactive”.
As for `O=C(N/N=C/c1ccsc1)c1c[nH]c2ccccc12`, the “inhibition” value was “inactive”.
Regarding `O=C1ON=C(c2ccccc2)/C1=C/c1ccc(O)c(O)c1`, the “inhibition” value was “inactive”.
On to `Cc1ccc(C(=O)NC2CCCCC2)cc1S(=O)(=O)N1CCCC1`, for which the “inhibition” value is “inactive”.
In the case of `CC1CCCCC1NC(=O)Cn1nnc(-c2ccc(Cl)cc2)n1` (stereo not given), the “inhibition” value was “inactive”.
Take `Cc1cc(CN(C)C(=O)c2cc(COc3ccc(F)cc3Cl)on2)n[nH]1`: the “inhibition” value is “inactive”.
On to `O=[N+]([O-])c1ccc(S(=O)(=O)Nc2nc(-c3ccccc3)cs2)cc1`, for which the “inhibition” value is “inactive”.
Still for that read-out and setting: in the case of `Cc1cc(OC(C)C(=O)Nc2ccc(S(=O)(=O)Nc3onc(C)c3C)cc2)cc(C)c1Cl` (stereo not given) it was “inactive”; in that of `COc1cc(NC(=O)c2csc(-c3ccncc3)n2)cc(C(=O)Nc2cccc(C(F)(F)F)c2)c1`, “inactive”.
For `COc1cccc(OC)c1OCCCCCc1c(C)n[nH]c1C`, the “inhibition” value is “inactive”.
On the same count and under the same terms, in the case of `CCCN(CCC)c1nc(N(CCC)CCC)[nH]c(=O)n1` it was “inactive”; in that of `CCN(CC(=O)Nc1cccc(OC)c1)c1ncnc2sc(C)c(C)c12`, “inactive”; in that of `CC(Oc1ccccc1Cl)C(=O)Nc1ccc(S(=O)(=O)Nc2nccs2)cc1` (stereo not given), “inactive”.
In the case of `COc1ccc(C(=O)NC(Cc2ccc(OC(=O)c3ccc(OC)cc3)cc2)C(=O)O)cc1` (stereo not given), the “inhibition” value is “inactive”.
For `Cc1ccccc1CCNCc1cc2cccc(C)c2[nH]c1=O`, the “inhibition” value is “inactive”.
Still for that read-out and setting: to `CC1CCCCC1NC(=O)c1c(O)nc2ccccn2c1=O` (stereo not given) belongs “inactive”; to `COc1ccc(-c2csc(Cc3nnc4n3CCCCC4)n2)cc1`, “inactive”; to `CC(C)(C)S(=O)(=O)/C(C#N)=N/Nc1ccc(Cl)cc1`, “inactive”.
Turning to `CCOC(=O)N1CCC(NC(=O)C2CCCN(Cc3nc(-c4cccc(Cl)c4)oc3C)C2)CC1` (stereo not given), the “inhibition” value was “inactive”.
As to `Fc1ccc(NC(=S)Nc2ccc(F)c(Cl)c2)cc1Cl`, the “inhibition” value is “inactive”.
The same measure, in the same setting: to `CCN(Cc1ccccc1)S(=O)(=O)c1cc(C(=O)NC2CCCCCC2)ccc1OC` belongs “inactive”; to `CC(SCc1ccccc1)C(=O)N/N=C/c1ccc(OCC(=O)NCc2ccco2)cc1` (stereo not given), “inactive”; to `CCCc1cc(NCC2CCCO2)n2c(nc3ccccc32)c1C#N` (stereo not given), “inactive”.
For `CC(/C=N/NC(=O)c1cc(-c2ccncc2)nc2ccccc12)=C\c1ccco1`, the “inhibition” value is “inactive”.
As to `CC1(C(=O)N2CCC(CC3CC(c4ccc(Cl)cc4)=NO3)(C(=O)NCC3CCCCC3)CC2)CC1` (stereo not given), the “inhibition” value is “inactive”.
In the case of `CCc1cc2c(N3CCN(c4nnc(CC)s4)CC3)ncnc2s1`, the “inhibition” value was “inactive”.
With `CCCCc1cc(O)c(CCCC)c(O)c1`, the “inhibition” value is “inactive”.
In the case of `COc1cc(/C=C2/C(=O)c3cccc([N+](=O)[O-])c3C2=O)c(Br)cc1O`, the “inhibition” value is “inactive”.

The experiment is the same for the next values; noted with them: HEK293-CHT, choline-induced depolarization, cells express LV-AA mutant CHT.
A word on the IC50: it is the concentration that gives 50% inhibition. Turning to `CCCn1nc(NS(=O)(=O)c2cccc3nonc23)c2cc3cccc(C)c3nc21`, the concentration for half-maximal inhibition (IC50) was 3.55 µM.
Consider `CC(C)c1nnc(NC(=O)c2nc(S(=O)(=O)Cc3ccccc3)ncc2Cl)s1`, for which the IC50 was 4.47 µM.
